Measurements from patent publication US5496843A, “Tricyclic indole-2-carboxylic acid derivatives” (Sumitomo Pharmaceuticals Company, Limited, priority 1993, dated 1996).

Experiments:
[1] = system: strychnine-insensitive glycine modulatory site of NMDA (N-methyl D-aspartate) receptors; test: [3H] glycine binding studies; details: 10 ng/mL test compound; 10 nM [3H] glycine; rat brain synaptic membrane preparation
Procedure: (§1) The activities of the compounds were measured by [^3 H] DCKA and [^3 H] glycine binding inhibition studies as illustrated below. [^3 H] glycine binding studies
(§2) A crude rat brain synaptic membrane preparation was washed three times by centrifugation at 50,000×g for 30 min with 50 mM tris acetate (pH 7.4). The pellets obtained were suspended in 0.23M sucrose solution and stored at -80° C. For binding studies, the frozen suspension was thawed, treated with 0.08% triton X-100 at 2° C. for 10 min, and washed twice by the centrifugation as mentioned above. The synaptic membrane thus prepared (ca. 150~200 μg of protein) was incubated with 10 nM [^3 H] glycine (1.11 TBq/mmol) and the test compound (10 ng/mL~0.1 ng/mL) at 2° C. for 10 min in 50 mM tris acetate (pH 7.4). The incubation was terminated by suction filtration using Whatman GF/B glass filter. The radioactivity bound to the membrane on the filter was measured by scintillation counting. Non-specific binding was calculated by the radioactivity measured under the incubations in the presence of 0.1 mM D-serine. The [3H] glycine binding was not inhibited by addition of 0.1 mM strychnine.

[2] = system: strychnine-insensitive glycine modulatory site of NMDA (N-methyl D-aspartate) receptors; test: [3H] DCKA binding studies; details: 10 ng/mL test compound; 10 nM [3H] DCKA; rat brain synaptic membrane preparation
Procedure: as §1
[^3 H] DCKA binding studies
as §2, with “100” for “150~200”, “(DCKA) (603 GBq/mmol)” for “glycine (1.11 TBq/mmol)”, “ng/mL~0.1ng/mL)” for “ng/mL~0.1 ng/mL)”, “glycine. […] DCKA binding.” for “D-serine. The [3H] glycine binding was not inhibited by addition of 0.1 mM strychnine.”

[3] = system: NMDA-induced tonic seizures; test: NMDA-induced seizure model; type: in vivo; details: 30 mg/kg, i.p., 30 min before NMDA (5 nmol) i.c.v.; mice
Procedure: The compounds of the present invention attenuated strongly NMDA-induced seizure under systemic administration in the following in vivo model. NMDA-induced seizure model Thirty min later following intraperitoneal administration of the test compound (0.3~30 mg/kg) into each of ten mice tested, NMDA (5 nmol) was administered intracerebroventricularly (i.c.v.).

Cl.NCc1ccc(NC(=O)CC2CCc3cc(Cl)cc4[nH]c(C(=O)O)c2c34)c(CC(=O)O)c1 (stereo not drawn) [Example 5, 7-Chloro-3-[p-aminomethyl-o-(carboxymethyl)phenylcarbamoylmethyl]-1,3,4,5-tetrahydrobenz[cd]indole-2-carboxylic acid hydrochloride]
inhibition of the [3H] glycine binding [1]: 69% | inhibition of the [3H] DCKA binding [2]: 94% | protection from tonic seizures [3]: 90%
